Reference: US20040009210A1, “Wound management products incorporating cationic compounds” (Kimberly-Clark Worldwide, Inc., priority 2002, published 2004)

Assay: Effective charge density of the cationic compound (measured)
Type: physicochemical

effective charge density (measured): about 1300 microequivalents/gram
SMILES: CCCCCCCC/C=C\CCCCCCCC(=O)NCC[N+]1=C(CCCCCCC/C=C\CCCCCCCC)N(C)CC1.COS(=O)(=O)[O-] [cationic softener, 1-methyl-2-Noroleyl-3-oleyl amidoethyl imidazolinium methosulfate]
